# Laboratory results as given in PubChem BioAssay (NCI).
#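 Where inhibition never reached the appropriate level, the endpoint shown equals the highest concentration tested. Otherwise, values were interpolated linearly from a five-concentration, 48-hour dose response in 96-well plates. At the TGI there is no net growth.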
# What was measured:
# Assay in all cases: NCI anticancer screen, dose series, 48 h
# MOLT-4 leukemia = tested on: MOLT-4 leukemia
# HCT-116 colon = tested on: HCT-116 colon
# CCRF-CEM leukemia = tested on: CCRF-CEM leukemia
# U251 CNS = tested on: U251 CNS
# EKVX NSCLC = tested on: EKVX NSCLC
# SN12C renal = tested on: SN12C renal
# K-562 leukemia = tested on: K-562 leukemia
# A498 renal = tested on: A498 renal
# NCI-H522 lung = tested on: NCI-H522 lung
# SNB-19 CNS = tested on: SNB-19 CNS
# IGROV1 ovarian = tested on: IGROV1 ovarian
# TK-10 renal = tested on: TK-10 renal
# SK-MEL-28 melanoma = tested on: SK-MEL-28 melanoma
# HS 578T breast = tested on: HS 578T breast
# SK-OV-3 ovarian = tested on: SK-OV-3 ovarian
# HCC-2998 colon = tested on: HCC-2998 colon
# CAKI-1 renal = tested on: CAKI-1 renal
# SW-620 colon = tested on: SW-620 colon
# RPMI-8226 leukemia = tested on: RPMI-8226 leukemia
# OVCAR-4 ovarian = tested on: OVCAR-4 ovarian
# LOX IMVI melanoma = tested on: LOX IMVI melanoma
# NCI-H23 lung = tested on: NCI-H23 lung
# SF-295 CNS = tested on: SF-295 CNS
# NCI-H226 lung = tested on: NCI-H226 lung
# OVCAR-3 ovarian = tested on: OVCAR-3 ovarian
# MDA-N = tested on: MDA-N
# OVCAR-5 ovarian = tested on: OVCAR-5 ovarian
# UACC-62 melanoma = tested on: UACC-62 melanoma
# SF-539 CNS = tested on: SF-539 CNS
# COLO 205 colon = tested on: COLO 205 colon
# MALME-3M melanoma = tested on: MALME-3M melanoma
# DU-145 prostate = tested on: DU-145 prostate
# OVCAR-8 ovarian = tested on: OVCAR-8 ovarian
# HL-60(TB) leukemia = tested on: HL-60(TB) leukemia
# 786-0 renal = tested on: 786-0 renal
# RXF 393 renal = tested on: RXF 393 renal
# HCT-15 colon = tested on: HCT-15 colon
# UACC-257 melanoma = tested on: UACC-257 melanoma
# PC-3 prostate = tested on: PC-3 prostate
# MDA-MB-231 breast = tested on: MDA-MB-231 breast
# A549 NSCLC = tested on: A549 NSCLC
# SK-MEL-5 melanoma = tested on: SK-MEL-5 melanoma
# MCF7 breast = tested on: MCF7 breast
# KM12 colon = tested on: KM12 colon
# NCI/ADR-RES ovarian = tested on: NCI/ADR-RES ovarian
# HOP-92 NSCLC = tested on: HOP-92 NSCLC
# SK-MEL-2 melanoma = tested on: SK-MEL-2 melanoma
# MDA-MB-435 = tested on: MDA-MB-435
# HOP-62 NSCLC = tested on: HOP-62 NSCLC
# SNB-75 CNS = tested on: SNB-75 CNS
# UO-31 renal = tested on: UO-31 renal
# NCI-H460 lung = tested on: NCI-H460 lung
# HT29 colon = tested on: HT29 colon
# T-47D breast = tested on: T-47D breast
# ACHN renal = tested on: ACHN renal
# BT-549 breast = tested on: BT-549 breast
# SF-268 CNS = tested on: SF-268 CNS
# M14 melanoma = tested on: M14 melanoma
# SR leukemia = tested on: SR leukemia
structure (smiles),measurement,setting,value
CC(=O)OCC1OC(OC2CC3C(C)(C)C(OC(C)=O)CC[C@]3(C)C3CCC45CC4(CCC5[C@@H](C)C[C@H](O)C(O)C(C)(C)O)[C@]23C)C(O)C(O)C1O (some centres not stated),TGI,MOLT-4 leukemia,> 10 µM
same,TGI,HCT-116 colon,> 10 µM
same,TGI,CCRF-CEM leukemia,> 10 µM
same,TGI,U251 CNS,> 10 µM
same,TGI,EKVX NSCLC,> 10 µM
same,TGI,SN12C renal,> 10 µM
same,TGI,K-562 leukemia,> 10 µM
same,TGI,A498 renal,> 10 µM
same,TGI,NCI-H522 lung,> 10 µM
same,TGI,SNB-19 CNS,> 10 µM
same,TGI,IGROV1 ovarian,> 10 µM
same,TGI,TK-10 renal,> 10 µM
same,TGI,SK-MEL-28 melanoma,> 10 µM
same,TGI,HS 578T breast,> 10 µM
same,TGI,SK-OV-3 ovarian,> 10 µM
same,TGI,HCC-2998 colon,> 10 µM
same,TGI,CAKI-1 renal,> 10 µM
same,TGI,SW-620 colon,> 10 µM
same,TGI,RPMI-8226 leukemia,> 10 µM
same,TGI,OVCAR-4 ovarian,> 10 µM
same,TGI,LOX IMVI melanoma,> 10 µM
same,TGI,NCI-H23 lung,> 10 µM
same,TGI,SF-295 CNS,> 10 µM
same,TGI,NCI-H226 lung,> 10 µM
same,TGI,OVCAR-3 ovarian,> 10 µM
same,TGI,MDA-N,> 10 µM
same,TGI,OVCAR-5 ovarian,> 10 µM
same,TGI,UACC-62 melanoma,> 10 µM
same,TGI,SF-539 CNS,> 10 µM
same,TGI,COLO 205 colon,> 10 µM
same,TGI,MALME-3M melanoma,> 10 µM
same,TGI,DU-145 prostate,> 10 µM
same,TGI,OVCAR-8 ovarian,> 10 µM
same,TGI,HL-60(TB) leukemia,> 10 µM
same,TGI,786-0 renal,> 10 µM
same,TGI,RXF 393 renal,> 10 µM
same,TGI,HCT-15 colon,> 10 µM
same,TGI,UACC-257 melanoma,> 10 µM
same,TGI,PC-3 prostate,> 10 µM
same,TGI,MDA-MB-231 breast,> 10 µM
same,TGI,A549 NSCLC,> 10 µM
same,TGI,SK-MEL-5 melanoma,> 10 µM
same,TGI,MCF7 breast,> 10 µM
same,TGI,KM12 colon,> 10 µM
same,TGI,NCI/ADR-RES ovarian,> 10 µM
same,TGI,HOP-92 NSCLC,> 10 µM
same,TGI,SK-MEL-2 melanoma,> 10 µM
same,TGI,MDA-MB-435,> 10 µM
same,TGI,HOP-62 NSCLC,> 10 µM
same,TGI,SNB-75 CNS,> 10 µM
same,TGI,UO-31 renal,> 10 µM
same,TGI,NCI-H460 lung,> 10 µM
same,TGI,HT29 colon,> 10 µM
same,TGI,T-47D breast,> 10 µM
same,TGI,ACHN renal,> 10 µM
same,TGI,BT-549 breast,> 10 µM
same,TGI,SF-268 CNS,> 10 µM
same,TGI,M14 melanoma,> 10 µM
Cc1cn(C2CC(O)C(COC(=O)NCCC(F)(F)C(F)(F)C(F)(F)C(F)(F)F)O2)c(=O)[nH]c1=O (configuration not stated),TGI,MOLT-4 leukemia,> 100 µM
same,TGI,HCT-116 colon,> 100 µM
same,TGI,CCRF-CEM leukemia,> 100 µM
same,TGI,U251 CNS,> 100 µM
same,TGI,EKVX NSCLC,> 100 µM
same,TGI,SN12C renal,> 100 µM
same,TGI,K-562 leukemia,> 100 µM
same,TGI,A498 renal,> 100 µM
same,TGI,NCI-H522 lung,> 100 µM
same,TGI,SNB-19 CNS,> 100 µM
same,TGI,IGROV1 ovarian,> 100 µM
same,TGI,TK-10 renal,> 100 µM
same,TGI,SK-MEL-28 melanoma,> 100 µM
same,TGI,HS 578T breast,> 100 µM
same,TGI,SK-OV-3 ovarian,> 100 µM
same,TGI,HCC-2998 colon,> 100 µM
same,TGI,CAKI-1 renal,> 100 µM
same,TGI,SW-620 colon,> 100 µM
same,TGI,OVCAR-4 ovarian,> 100 µM
same,TGI,NCI-H23 lung,> 100 µM
same,TGI,SF-295 CNS,> 100 µM
same,TGI,NCI-H226 lung,> 100 µM
same,TGI,OVCAR-3 ovarian,> 100 µM
same,TGI,MDA-N,> 100 µM
same,TGI,OVCAR-5 ovarian,> 100 µM
same,TGI,UACC-62 melanoma,> 100 µM
same,TGI,SF-539 CNS,> 100 µM
same,TGI,COLO 205 colon,> 100 µM
same,TGI,MALME-3M melanoma,> 100 µM
same,TGI,DU-145 prostate,> 100 µM
same,TGI,OVCAR-8 ovarian,> 100 µM
same,TGI,HL-60(TB) leukemia,> 100 µM
same,TGI,786-0 renal,> 100 µM
same,TGI,RXF 393 renal,> 100 µM
same,TGI,UACC-257 melanoma,> 100 µM
same,TGI,PC-3 prostate,> 100 µM
same,TGI,MDA-MB-231 breast,> 100 µM
same,TGI,A549 NSCLC,> 100 µM
same,TGI,SK-MEL-5 melanoma,> 100 µM
same,TGI,MCF7 breast,> 100 µM
same,TGI,KM12 colon,> 100 µM
same,TGI,HOP-92 NSCLC,> 100 µM
same,TGI,MDA-MB-435,> 100 µM
same,TGI,HOP-62 NSCLC,> 100 µM
same,TGI,SNB-75 CNS,> 100 µM
same,TGI,UO-31 renal,> 100 µM
same,TGI,NCI-H460 lung,> 100 µM
same,TGI,HT29 colon,> 100 µM
same,TGI,T-47D breast,> 100 µM
same,TGI,ACHN renal,> 100 µM
same,TGI,BT-549 breast,> 100 µM
same,TGI,SR leukemia,> 100 µM
same,TGI,SF-268 CNS,> 100 µM
same,TGI,M14 melanoma,> 100 µM
